For experiment [1], the species on record is Homo sapiens. The experiment can be described thus: Hallucinogenic activity in human relative to mescaline. The format is functional.
The species entered for experiment [2] is Homo sapiens. In words: Hallucinogenic activity in human. Format: functional.

Consider `COc1ccc(CCN)cc1`, for which the Ratio in experiment [1] is given as 1.
Consider `COc1cc(CC(C)N)c(OC)c(OC)c1` (stereo not given), for which the “log(activity)” value in experiment [2] was 0.63.
For the molecule `COc1cc2c(cc1CC(C)N)OCO2` (stereo not given), the “log(activity)” value in experiment [2] worked out at 1.08.
Consider `COc1c(CCN)ccc2c1OCO2`, for which, in experiment [1], the Ratio worked out at 5.
For the molecule `COc1cc(CC(C)N)c(OC)c(OC)c1OC` (stereo not given), the “log(activity)” value in experiment [2] stood at 0.86.
In the case of `COc1ccc(OC)c(OC)c1CC(C)N` (stereo not given), the “log(activity)” value in experiment [2] is recorded as 1.14.
Same read-out and setting: for `COc1cc(CC(C)N)c(OC)c2c1OCO2` (stereo not given) the value was 1.13; for `COc1cc(CC(C)N)cc2c1OCO2` (stereo not given), 0.43.
With `COc1c(CC(C)N)ccc2c1OCO2` (stereo not given), the “log(activity)” value in experiment [2] came out at 1. The Ratio in experiment [1] was found to be 1.
As to `COc1ccc(CC(C)N)c2c1OCO2` (stereo not given), the “log(activity)” value in experiment [2] is recorded as 0.48.
For the molecule `CCCCCc1cc(OC)c(CC(C)N)cc1OC` (stereo not given), the “log(activity)” value in experiment [2] is recorded as 1.09.
`COc1ccc(CCN)cc1OC`: the Ratio in experiment [1] was 0.2.
As for `COc1ccc(CC(C)N)cc1OC` (stereo not given), the Ratio in experiment [1] was 2.
For the molecule `COc1ccc(CC(C)N)c(OC)c1` (stereo not given), the “log(activity)” value in experiment [2] is 0.67.
As to `COc1cc(CC(C)N)cc(OC)c1OC` (stereo not given), the “log(activity)” value in experiment [2] was 0.37.
With `COc1ccc(CC(C)N)c(OC)c1OC` (stereo not given), in experiment [1], the Ratio is 2.
Same read-out and setting: for `CCOc1cc(CC(C)N)c(OC)cc1OC` (stereo not given) the value was 7; for `CCOc1cc2c(cc1CC(C)N)OCO2` (stereo not given), 7; for `COc1cc(CCN)c2c(c1)OCO2`, 1.
For the molecule `COc1cc(OC)c(CC(C)N)c(OC)c1` (stereo not given), the “log(activity)” value in experiment [2] worked out at 1.03.
`COc1cc(OC)c(OC)cc1CCN`: the Ratio in experiment [1] is given as 1.
With `CN(C)CCc1c[nH]c2cc(O)ccc12`, the Ratio in experiment [1] is listed as 25.
With `COc1c(CC(C)N)cc2c(c1OC)OCO2` (stereo not given), the “log(activity)” value in experiment [2] is recorded as 0.75.
Consider `CCCCc1cc(OC)c(CC(C)N)cc1OC` (stereo not given), for which the “log(activity)” value in experiment [2] is 1.63.
For `CCc1cc(OC)c(CC(C)N)cc1OC` (stereo not given), the “log(activity)” value in experiment [2] was 2.01.
For the molecule `CCOc1cc(OC)c(CC(C)N)cc1OC` (stereo not given), the “log(activity)” value in experiment [2] came to 1.22.
For the molecule `COc1cc(OC)c(OC)cc1CC(C)N` (stereo not given), in experiment [2], the “log(activity)” value was determined as 1.26.
Same read-out and setting: for `CCCc1cc(OC)c(CC(C)N)cc1OC` (stereo not given) the value was 1.94.
Regarding `COc1ccc(OC)c(CC(C)N)c1` (stereo not given), in experiment [2], the “log(activity)” value is 0.87.
Turning to `COc1cc(CC(C)N)c(OC)cc1Br` (stereo not given) [BROLAMFETAMINE], the “log(activity)” value in experiment [2] was 2.71.
For `COc1cc(CC(C)N)c(OC)cc1C` (stereo not given) [DOM], the “log(activity)” value in experiment [2] worked out at 1.89.
In the case of `COc1ccc(CC(C)N)cc1` (stereo not given) [PARA-METHOXYAMPHETAMINE], in experiment [2], the “log(activity)” value came to 0.59.
As for `CN(C)CCc1c[nH]c2cccc(O)c12` [PSILOCIN], the Ratio in experiment [1] is recorded as 32.
Turning to `CC(N)Cc1ccc2c(c1)OCO2` (stereo not given) [TENAMFETAMINE], in experiment [2], the “log(activity)” value worked out at 0.41.

(Values after ChEMBL document CHEMBL3244089, “Structure-activity studies on hallucinogenic amphetamines using molecular connectivity” (1977).)
